Values after ≈ are worked out from the molar mass of the structure shown. Like-named read-outs stand apart in the source and are kept apart here. Values belong to the compound of their own block, whether it stands above or below them.
Key:
[1] = test system: FOXO1 KTR translocation in T47D cells; assay: FOXO1 KTR translocation; type: cell-based; settings: for time to import of FOXO1-KTR into the nucleus: 3 μM, live cell imaging
[2] = test system: PKB phosphorylation (Ser473) in T47D, MCF7, PC3 and A2058 cells; assay: Washout, pPKB in-cell western; type: cell-based
[3] = test system: FOXO1 KTR translocation in A2058 cells; assay: FOXO1 KTR translocation; type: cell-based
Kinetic solubility = type: physicochemical; settings: for solubility at 2 h: PBS buffer, 25 °C, pH 7.4, aqueous buffer, kinetic from dmso stock
[4] = test system: PKB/Akt phosphorylation (Ser473) in MCF7 cells; assay: pPKB/Akt in-cell western; type: cell-based; settings: MCF7, 1 h; for prevention of PKB phosphorylation: 3 μM to 0.8 nM
[5] = test system: PKB/Akt phosphorylation (Ser473) in T47D cells; assay: pPKB/Akt in-cell western; type: cell-based; settings: 1 h; for prevention of PKB phosphorylation: 3 μM to 0.8 nM
[6] = test system: PKB/Akt phosphorylation (Ser473) in SKOV3 cells; assay: pPKB/Akt in-cell western; type: cell-based; settings: read-out: pPKB/Akt IC50, 1 h of compound exposure
[7] = Intrinsic warhead reactivity; type: physicochemical; settings: 1 mM compound, 600 mM βME, 37 °C
Nanoluc-p110α fusion = Nanoluc-p110α fusion (Homo sapiens, UniProt P42336); assay: NanoBRET tracer displacement / diffusion assay in HEK293 cells; type: cell-based; settings: for increase in cellular permeability versus BYL719: diffusion coefficients
Chain of Nanoluc-p110α fusion (P42336 whole entry, the tested form may be a part): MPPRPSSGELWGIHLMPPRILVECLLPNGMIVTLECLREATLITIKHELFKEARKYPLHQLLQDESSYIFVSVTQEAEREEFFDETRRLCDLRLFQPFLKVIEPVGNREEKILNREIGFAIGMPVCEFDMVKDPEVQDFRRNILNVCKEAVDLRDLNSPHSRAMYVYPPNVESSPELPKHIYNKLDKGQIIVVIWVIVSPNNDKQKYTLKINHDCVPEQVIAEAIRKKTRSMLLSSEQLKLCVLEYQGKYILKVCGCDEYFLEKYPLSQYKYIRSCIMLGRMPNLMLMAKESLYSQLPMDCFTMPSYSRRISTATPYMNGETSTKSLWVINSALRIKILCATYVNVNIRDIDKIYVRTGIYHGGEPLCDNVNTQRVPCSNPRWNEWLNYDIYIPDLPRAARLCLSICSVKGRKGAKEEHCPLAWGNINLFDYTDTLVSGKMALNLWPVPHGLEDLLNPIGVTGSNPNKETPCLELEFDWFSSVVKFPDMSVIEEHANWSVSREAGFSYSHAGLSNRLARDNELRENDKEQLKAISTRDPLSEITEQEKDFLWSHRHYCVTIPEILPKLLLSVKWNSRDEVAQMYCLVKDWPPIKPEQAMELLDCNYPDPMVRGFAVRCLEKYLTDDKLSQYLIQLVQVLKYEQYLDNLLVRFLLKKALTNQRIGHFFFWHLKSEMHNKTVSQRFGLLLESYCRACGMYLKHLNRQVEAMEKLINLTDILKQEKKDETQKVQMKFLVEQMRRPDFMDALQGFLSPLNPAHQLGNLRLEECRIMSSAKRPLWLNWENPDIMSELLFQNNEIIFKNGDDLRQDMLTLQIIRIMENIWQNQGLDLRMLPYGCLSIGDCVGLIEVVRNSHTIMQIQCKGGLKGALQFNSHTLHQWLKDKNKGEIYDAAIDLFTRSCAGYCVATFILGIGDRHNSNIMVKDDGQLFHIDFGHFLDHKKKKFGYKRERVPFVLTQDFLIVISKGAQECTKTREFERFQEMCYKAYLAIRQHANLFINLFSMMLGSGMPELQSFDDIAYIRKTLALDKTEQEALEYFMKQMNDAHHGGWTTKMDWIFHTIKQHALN
Chain of Nanoluc-p110α fusion (P27986 whole entry partner, the tested form may be a part): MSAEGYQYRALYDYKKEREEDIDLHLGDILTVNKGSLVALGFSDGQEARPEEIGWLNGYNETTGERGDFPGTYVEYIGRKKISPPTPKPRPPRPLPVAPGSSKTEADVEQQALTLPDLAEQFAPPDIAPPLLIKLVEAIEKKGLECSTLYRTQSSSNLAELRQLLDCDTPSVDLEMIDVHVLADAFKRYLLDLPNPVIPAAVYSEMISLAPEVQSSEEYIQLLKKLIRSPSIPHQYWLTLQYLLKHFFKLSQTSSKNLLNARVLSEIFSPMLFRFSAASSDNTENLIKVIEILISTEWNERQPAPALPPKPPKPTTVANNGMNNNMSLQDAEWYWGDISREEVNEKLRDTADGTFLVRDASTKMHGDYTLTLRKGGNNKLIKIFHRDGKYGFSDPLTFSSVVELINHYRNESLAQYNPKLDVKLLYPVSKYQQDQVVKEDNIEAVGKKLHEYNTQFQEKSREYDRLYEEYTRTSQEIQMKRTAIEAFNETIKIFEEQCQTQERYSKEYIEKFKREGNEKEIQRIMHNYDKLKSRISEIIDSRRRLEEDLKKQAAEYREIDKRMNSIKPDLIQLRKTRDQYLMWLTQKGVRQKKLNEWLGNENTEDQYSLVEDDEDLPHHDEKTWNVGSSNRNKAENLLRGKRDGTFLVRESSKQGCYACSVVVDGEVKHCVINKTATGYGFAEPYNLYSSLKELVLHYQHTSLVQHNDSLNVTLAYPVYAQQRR

PI3Kα-mutant cell lines = assay: Growth rate inhibition, panel comparison; type: cell-based; settings: 72 h incubation, GR50
[8] = test system: PI3K signaling (pPKB Ser473) in serum-starved MCF7 cells; assay: Receptor ligand stimulated pPKB after washout, western blot; type: cell-based; settings: for inhibition at 1 µM: Homo sapiens, MCF7, 2 h
[9] = test system: PKB phosphorylation (Ser473) in MDA-MB-453, T47D and MCF7 cells; assay: Washout, pPKB in-cell western; type: cell-based; settings: 1 μM for 2 h then washout
p110α = p110α protein levels by western blot; type: cell-based; settings: 1 μM for 48 h
PI3Kα mutant cell lines = assay: Growth rate on intermittent exposure; type: cell-based; settings: 1 μM for 4 h daily over 4 days

IC50 [6]: 172 nM
Solubility (Kinetic solubility; kinetic solubility at pH 7.4 in PBS): 10 µM (≈ 5.74 µg/mL)
Compound: CC(C)=CC(=O)CCC(=O)N1CCN(Cc2cc3nc(-c4cccc5[nH]ncc45)nc(N4CCOCC4)c3s2)CC1 [CNX1351, reference compound]
k chem × 10^4 [7]: 2.2 M^−1 s^−1

solubility at 2 h (Kinetic solubility): 357 µM (≈ 145 µg/mL)
Compound: C[C@H](Nc1ccc2c(c1)OCCn1cc(N3C(=O)OC[C@H]3C(F)F)nc1-2)C(N)=O [GDC-0077, reference compound]
depletion of p110α (p110α; HCC1954 and MDA-MB-453 cells): prominent, indistinguishable depletion of p110α
depletion of p110α (p110α; MCF7 and T47D cells): insignificant

The remaining lines, values behind:

Compound: Cc1nc(NC(=O)N2CCC[C@H]2C(N)=O)sc1-c1ccnc(C(C)(C)C(F)(F)F)c1 [BYL719, reference compound]
time to import of FOXO1-KTR into the nucleus [1]: < 20 min
FOXO1-KTR nuclear import IC90 ([1]; 1 h incubation): not able to induce full nuclear translocation
reactivation of PI3K/PKB signaling after removal of inhibitor ([2]; all cell lines, 2 h incubation then washout): reactivated PI3K/PBK signaling within the first hour
FOXO1-KTR nuclear translocation IC90 ([3]; A2058, 1 h incubation): completely ineffective
solubility at 2 h (Kinetic solubility): 49 µM (≈ 21.6 µg/mL)

Compound: CC[C@H](Nc1ncnc2[nH]cnc12)c1nc2cccc(F)c2c(=O)n1-c1ccccc1 [CAL101]
prevention of PKB phosphorylation [4]: did not prevent PKB phosphorylation
prevention of PKB phosphorylation [5]: did not prevent PKB phosphorylation

Compound: C=CC(=O)N1CCC(C(=O)NCC(=O)N2CCN(c3nc(-c4cnc(N)nc4C(F)F)nc(N4CCOCC4)n3)CC2)CC1 [Compound 1]
IC50 [6]: 86 nM
solubility at 2 h (Kinetic solubility): 333 µM (≈ 205 µg/mL)

Compound: C=CC(=O)N1CCC(C(=O)N(C)CC(=O)N2CCN(c3nc(-c4cnc(N)nc4C(F)F)nc(N4CCOCC4)n3)CC2)CC1 [Compound 2]
IC50 [6]: 82 nM
solubility at 2 h (Kinetic solubility): 383 µM (≈ 241 µg/mL)

Compound: C=CC(=O)N1CCC(CN(C)CC(=O)N2CCN(c3nc(-c4cnc(N)nc4C(F)F)nc(N4CCOCC4)n3)CC2)CC1 [Compound 3]
IC50 [6]: 38 nM
solubility at 2 h (Kinetic solubility): 363 µM (≈ 223 µg/mL)

Compound: C=CC(=O)N1CCC(C(=O)NCCN2CCN(c3nc(-c4cnc(N)nc4C(F)F)nc(N4CCOCC4)n3)CC2)CC1 [Compound 4]
IC50 [6]: 69 nM
k chem × 10^4 [7]: ~5.2 ^e M^−1 s^−1

Compound: C=CC(=O)N1CCC(CCCC(=O)N2CCN(c3nc(-c4cnc(N)nc4C(F)F)nc(N4CCOCC4)n3)CC2)CC1 [Compound 7]
IC50 [6]: 22 nM
persistence of nuclear FOXO1-KTR localization after washout ([1]; 3 μM then washout): > 10 h
time to import of FOXO1-KTR into the nucleus [1]: < 20 min
IC90 ([1]; Homo sapiens, 1 h, read-out: FOXO1-KTR nuclear import IC90): 50 nM
PI3K/PKB signaling after washout ([2]; PTEN-deficient cell lines): ~50%
duration of pathway inhibition after washout ([2]; T47D and MCF7 cells, 3 μM for 2 h then washout): > 18 h
time to nuclear FOXO1 KTR localization ([3]; A2058, 3 μM, live cell imaging): > 40 min
IC90 ([3]; Homo sapiens, A2058, 1 h, read-out: FOXO1-KTR nuclear translocation IC90): 1660 nM
better cellular potency (lower pPKB IC50) as compared to BYL719 [4]: 8 fold
better cellular potency (lower pPKB IC50) as compared to BYL719 [5]: 5 fold

Compound: C=CC(=O)N1CCC(COCC(=O)N2CCN(c3nc(-c4cnc(N)nc4C(F)F)nc(N4CCOCC4)n3)CC2)CC1 [Compound 8]
IC50 [6]: 19 nM
increase in cellular permeability versus BYL719 (Nanoluc-p110α fusion): 2- to 3 fold

Compound: C=CC(=O)N1CCC(COCC(=O)N2CCN(c3nc(-c4cnc(N)nc4C(F)F)nc(N4CCOC[C@@H]4C)n3)CC2)CC1 [Compound 9]
IC50 [6]: 19 nM
more potent growth inhibition than reference compounds BYL719 and GDC-0077 (PI3Kα-mutant cell lines): 2- to 273 fold
more potent than the reversible analogue 9r (PI3Kα-mutant cell lines): 6- to 70 fold
inhibition at 1 µM ([8]; read-out: inhibition of PI3K signaling in response to CXCL12): 91%
inhibition at 1 µM ([8]; read-out: inhibition of PI3K signaling in response to EGF): 98%
duration of loss of detectable pPKB after washout [9]: up to 72 h
depletion of p110α (p110α; HCC1954 and MDA-MB-453 cells): prominent, indistinguishable depletion of p110α
depletion of p110α (p110α; MCF7 and T47D cells): insignificant
growth rate (PI3Kα mutant cell lines): ≤ 0.5
solubility at 2 h (Kinetic solubility): 357 µM (≈ 220 µg/mL)
increase in cellular permeability versus BYL719 (Nanoluc-p110α fusion): 2- to 3 fold
faster permeation into cells as compared to 7 (Nanoluc-p110α fusion; human, 4 h): ca. 2.8 ×

Compound: CCC(=O)N1CCC(COCC(=O)N2CCN(c3nc(-c4cnc(N)nc4C(F)F)nc(N4CCOC[C@@H]4C)n3)CC2)CC1 [Compound 9r]
time to equilibrium of BRET signal decay (Nanoluc-p110α fusion; HEK293, 200 nM Tracer K-3): ca. 20 min
increase in cellular permeability versus BYL719 (Nanoluc-p110α fusion): 2- to 3 fold

Compound: C=CC(=O)N1CCC[C@@H](n2nc(-c3ccc(Oc4ccccc4)cc3)c3c(N)ncnc32)C1 [Ibrutinib, reference compound]
solubility at 2 h (Kinetic solubility): 10 µM (≈ 4.41 µg/mL)

Compound: Cc1cc(C(C)Nc2ccccc2)c2nc(N3CCOCC3)cc(=O)n2c1 (centres unmarked) [TGX221]
suppression of the remaining PI3K signaling, CXCL12 ([8]; MCF7, TGX221 1 μM after 9-wo): 6%
suppression of the remaining PI3K signaling, EGF ([8]; MCF7, TGX221 1 μM after 9-wo): 2%
suppression of the remaining PI3K signaling, insulin ([8]; MCF7, TGX221 1 μM after 9-wo): 12%
prevention of PKB phosphorylation [4]: did not prevent PKB phosphorylation
prevention of PKB phosphorylation [5]: did not prevent PKB phosphorylation
